# Source: US11530210B2, “Substituted heteroaromatic pyrazolo-pyridines and their use as GLUN2B receptor modulators” (JANSSEN PHARMACEUTICA NV, priority 2019, dated 2022)
# Where a name gives a salt, the structure may show the parent alone.
# Biological target: T1, human GluN1/GluN2B NMDA receptors (Homo sapiens, UniProt Q13224)
# T1 construct: expressed in transfected cells
# Assay: Calcium flux (FLIPR) assay on cloned human NR1/GluN2B ion channels expressed in mammalian cells (standard and HTS variants)
# Format: cell-based
# Conditions: cells expressing human GluN1/GluN2B, glutamate and glycine co-agonists
# Method in brief: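 Calcium influx read by FLIPR after co-agonist addition (glycine 10 μM, glutamate near EC40) following 5 min compound preincubation, with signal normalized to control wells.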
# T1 sequence (Q13224 27-1484, other chains not shown): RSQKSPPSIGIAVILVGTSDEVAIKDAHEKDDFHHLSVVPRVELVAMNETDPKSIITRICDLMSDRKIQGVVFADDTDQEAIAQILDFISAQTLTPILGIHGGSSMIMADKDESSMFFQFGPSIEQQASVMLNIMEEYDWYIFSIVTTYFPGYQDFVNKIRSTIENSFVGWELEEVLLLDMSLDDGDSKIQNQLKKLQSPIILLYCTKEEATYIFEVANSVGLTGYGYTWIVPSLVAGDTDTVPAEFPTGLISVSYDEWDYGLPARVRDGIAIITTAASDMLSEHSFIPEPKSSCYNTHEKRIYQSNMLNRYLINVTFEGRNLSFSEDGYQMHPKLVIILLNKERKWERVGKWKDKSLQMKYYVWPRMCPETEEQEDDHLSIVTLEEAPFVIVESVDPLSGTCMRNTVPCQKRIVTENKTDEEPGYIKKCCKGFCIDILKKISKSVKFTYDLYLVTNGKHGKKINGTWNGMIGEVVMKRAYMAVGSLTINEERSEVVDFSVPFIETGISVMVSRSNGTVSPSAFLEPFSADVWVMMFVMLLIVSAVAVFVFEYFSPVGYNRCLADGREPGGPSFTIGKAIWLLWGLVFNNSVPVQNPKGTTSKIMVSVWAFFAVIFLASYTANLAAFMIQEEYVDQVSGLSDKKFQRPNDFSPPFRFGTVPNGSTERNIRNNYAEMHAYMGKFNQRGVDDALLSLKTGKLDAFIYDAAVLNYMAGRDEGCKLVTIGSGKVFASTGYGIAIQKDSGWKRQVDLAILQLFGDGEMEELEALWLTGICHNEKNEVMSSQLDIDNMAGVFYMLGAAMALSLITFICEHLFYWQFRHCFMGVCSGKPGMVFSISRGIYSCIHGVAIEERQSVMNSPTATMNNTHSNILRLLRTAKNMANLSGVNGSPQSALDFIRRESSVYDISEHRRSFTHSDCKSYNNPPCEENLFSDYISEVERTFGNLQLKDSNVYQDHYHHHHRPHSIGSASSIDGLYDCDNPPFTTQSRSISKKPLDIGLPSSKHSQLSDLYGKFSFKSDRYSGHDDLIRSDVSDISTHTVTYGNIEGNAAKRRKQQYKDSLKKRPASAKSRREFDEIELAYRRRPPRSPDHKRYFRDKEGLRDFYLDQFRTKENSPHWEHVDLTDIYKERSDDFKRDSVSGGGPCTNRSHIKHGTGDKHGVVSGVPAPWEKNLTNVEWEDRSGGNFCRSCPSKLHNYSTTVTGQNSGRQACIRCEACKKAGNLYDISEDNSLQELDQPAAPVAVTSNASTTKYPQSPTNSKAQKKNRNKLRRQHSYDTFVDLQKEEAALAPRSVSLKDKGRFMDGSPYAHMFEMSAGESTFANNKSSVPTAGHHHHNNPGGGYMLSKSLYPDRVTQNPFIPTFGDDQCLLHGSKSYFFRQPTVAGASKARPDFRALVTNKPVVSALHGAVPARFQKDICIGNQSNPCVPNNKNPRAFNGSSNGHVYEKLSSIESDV
row,IC50 [µM],Compound
1,0.151,"N#Cc1cncc(Cn2ncc3ncc(-c4ccc(Cl)c(OC(F)F)c4)cc32)c1 [Example 241, 5-[[6-[4-Chloro-3-(difluoromethoxy)phenyl]pyrazolo[4,3-b]pyridin-1-yl]methyl]pyridine-3-carbonitrile]"
2,0.5,"COc1cncc(Cn2ncc3ncc(-c4ccc(Cl)c(OC(F)F)c4)cc32)c1 [Example 242, 6-[4-Chloro-3-(difluoromethoxy)phenyl]-1-[(5-methoxy-3-pyridyl)methyl]pyrazolo[4,3-b]pyridine]"
3,0.146,"FC(F)Oc1cc(-c2cnc3cnn(Cc4cncc(Cl)c4)c3c2)ccc1Cl [Example 243, 6-[4-Chloro-3-(difluoromethoxy)phenyl]-1-[(5-chloro-3-pyridyl)methyl]pyrazolo[4,3-b]pyridine]"
4,0.31,"Cc1c(F)ccc(-c2cnc3cnn(Cc4ccccn4)c3c2)c1F [Example 244, 6-(2,4-Difluoro-3-methyl-phenyl)-1-(2-pyridylmethyl)pyrazolo[4,3-b]pyridine]"
5,0.033,"Cc1c(F)ccc(-c2cnc3cnn(Cc4cccnc4)c3c2)c1F [Example 245, 6-(2,4-Difluoro-3-methyl-phenyl)-1-(3-pyridylmethyl)pyrazolo[4,3-b]pyridine trifluoroacetate salt]"
6,0.052,"Cc1cncc(Cn2ncc3ncc(-c4ccc(F)c(C)c4F)cc32)c1 [Example 246, 6-(2,4-Difluoro-3-methyl-phenyl)-1-[(5-methyl-3-pyridyl)methyl]pyrazolo[4,3-b]pyridine]"
7,0.128,"Cc1ccncc1Cn1ncc2ncc(-c3ccc(F)c(C)c3F)cc21 [Example 247, 6-(2,4-Difluoro-3-methyl-phenyl)-1-[(4-methyl-3-pyridyl)methyl]pyrazolo[4,3-b]pyridine trifluoroacetate salt]"
8,0.062,"Cc1c(F)ccc(-c2cnc3cnn(Cc4ccc(F)nc4)c3c2)c1F [Example 248, 6-(2,4-Difluoro-3-methyl-phenyl)-1-[(6-fluoro-3-pyridyl)methyl]pyrazolo[4,3-b]pyridine]"
9,0.04,"Cc1c(F)ccc(-c2cnc3cnn(Cc4cncc(F)c4)c3c2)c1F [Example 249, 6-(2,4-Difluoro-3-methyl-phenyl)-1-[(5-fluoro-3-pyridyl)methyl]pyrazolo[4,3-b]pyridine trifluoroacetate salt]"
10,2.63,"Fc1cc(-c2cnc3cnn(Cc4ccccn4)c3c2)cc(F)c1F [Example 250, 1-(2-Pyridylmethyl)-6-(3,4,5-trifluorophenyl)pyrazolo[4,3-b]pyridine]"
11,0.025,"Fc1cncc(Cn2ncc3ncc(-c4cc(F)c(F)c(F)c4)cc32)c1 [Example 251, 1-[(5-Fluoro-3-pyridyl)methyl]-6-(3,4,5-trifluorophenyl)pyrazolo[4,3-b]pyridine]"
12,0.382,"COc1cncc(Cn2ncc3ncc(-c4cc(F)c(F)c(F)c4)cc32)c1 [Example 252, 1-[(5-Methoxy-3-pyridyl)methyl]-6-(3,4,5-trifluorophenyl)pyrazolo[4,3-b]pyridine]"
13,0.98,"Fc1cc(-c2cnc3cnn(Cc4cncc(OC(F)F)c4)c3c2)cc(F)c1F [Example 253, 1-[[5-(Difluoromethoxy)-3-pyridyl]methyl]-6-(3,4,5-trifluorophenyl)pyrazolo[4,3-b]pyridine]"
14,0.548,"FC(F)(F)c1cccc(-c2cnc3cnn(Cc4ccnnc4)c3c2)c1 [Example 254, 1-(Pyridazin-4-ylmethyl)-6-[3-(trifluoromethyl)phenyl]pyrazolo[4,3-b]pyridine]"
15,0.329,"Cc1cccc(-c2cnc3cnn(Cc4cccnn4)c3c2)c1 [Example 255, 6-(m-Tolyl)-1-(pyridazin-3-ylmethyl)pyrazolo[4,3-b]pyridine]"
16,1.41,"Fc1cccc(-c2cnc3cnn(Cc4cccnn4)c3c2)c1 [Example 256, 6-(3-Fluorophenyl)-1-(pyridazin-3-ylmethyl)pyrazolo[4,3-b]pyridine trifluoroacetate salt]"
17,0.11,"CC(F)(F)c1cccc(-c2cnc3cnn(Cc4cccnn4)c3c2)c1 [Example 257, 6-[3-(1,1-Difluoroethyl)phenyl]-1-(pyridazin-3-ylmethyl)pyrazolo[4,3-b]pyridine]"
18,0.24,"FC(F)(F)c1cccc(-c2cnc3cnn(Cc4cccnn4)c3c2)c1 [Example 258, 1-(Pyridazin-3-ylmethyl)-6-[3-(trifluoromethyl)phenyl]pyrazolo[4,3-b]pyridine]"
19,0.03,"Cc1cc(-c2cnc3cnn(Cc4cccnn4)c3c2)ccc1F [Example 259, 6-(4-Fluoro-3-methyl-phenyl)-1-(pyridazin-3-ylmethyl)pyrazolo[4,3-b]pyridine trifluoroacetate salt]"
20,0.162,"CC(F)(F)c1cc(-c2cnc3cnn(Cc4cccnn4)c3c2)ccc1F [Example 260, 6-[3-(1,1-Difluoroethyl)-4-fluoro-phenyl]-1-(pyridazin-3-ylmethyl)pyrazolo[4,3-b]pyridine]"
21,0.273,"Cc1ccc(Cn2ncc3ncc(-c4ccc(F)c(C(F)F)c4)cc32)nn1 [Example 262, 6-[3-(Difluoromethyl)-4-fluoro-phenyl]-1-[(6-methylpyridazin-3-yl)methyl]pyrazolo[4,3-b]pyridine]"

row,IC50 [µM],Compound
1,0.112,"Fc1ccc(-c2cnc3cnn(Cc4cccnn4)c3c2)cc1OC(F)F [Example 263, 6-[3-(Difluoromethoxy)-4-fluoro-phenyl]-1-(pyridazin-3-ylmethyl)pyrazolo[4,3-b]pyridine]"
2,0.626,"Cc1ccc(Cn2ncc3ncc(-c4ccc(F)c(OC(F)F)c4)cc32)nn1 [Example 264, 6-[3-(Difluoromethoxy)-4-fluoro-phenyl]-1-[(6-methylpyridazin-3-yl)methyl]pyrazolo[4,3-b]pyridine]"
3,0.115,"FC(F)Oc1cc(-c2cnc3cnn(Cc4cccnn4)c3c2)ccc1Cl [Example 265, 6-[4-Chloro-3-(difluoromethoxy)phenyl]-1-(pyridazin-3-ylmethyl)pyrazolo[4,3-b]pyridine]"
4,0.67,"Fc1ccc(-c2cnc3cnn(Cc4cccnn4)c3c2)cc1F [Example 266, 6-(3,4-Difluorophenyl)-1-(pyridazin-3-ylmethyl)pyrazolo[4,3-b]pyridine]"
5,0.404,"Cc1cc(-c2cnc3cnn(Cc4cccnn4)c3c2)ccc1Cl [Example 267, 6-(4-Chloro-3-methyl-phenyl)-1-(pyridazin-3-ylmethyl)pyrazolo[4,3-b]pyridine]"
6,0.673,"Fc1cc(-c2cnc3cnn(Cc4cccnn4)c3c2)cc(F)c1F [Example 268, 1-(Pyridazin-3-ylmethyl)-6-(3,4,5-trifluorophenyl)pyrazolo[4,3-b]pyridine]"
7,0.108,"Cc1c(F)ccc(-c2cnc3cnn(Cc4cccnn4)c3c2)c1F [Example 269, 6-(2,4-Difluoro-3-methyl-phenyl)-1-(pyridazin-3-ylmethyl)pyrazolo[4,3-b]pyridine]"
8,0.176,"Fc1ccc(-c2cnc3cnn(Cc4ccncn4)c3c2)cc1C(F)F [Example 270, 6-[3-(Difluoromethyl)-4-fluoro-phenyl]-1-(pyrimidin-4-ylmethyl)pyrazolo[4,3-b]pyridine]"
9,0.401,"Fc1ccc(-c2cnc3cnn(Cc4ccncn4)c3c2)cc1OC(F)F [Example 271, 6-[3-(Difluoromethoxy)-4-fluoro-phenyl]-1-(pyrimidin-4-ylmethyl)pyrazolo[4,3-b]pyridine]"
10,0.037,"Fc1ccc(-c2cnc3cnn(Cc4cnccn4)c3c2)cc1C(F)F [Example 272, 6-[3-(Difluoromethyl)-4-fluoro-phenyl]-1-(pyrazin-2-ylmethyl)pyrazolo[4,3-b]pyridine]"
11,0.32,"Fc1ccc(-c2cnc3cnn(Cc4cnccn4)c3c2)cc1OC(F)F [Example 273, 6-[3-(Difluoromethoxy)-4-fluoro-phenyl]-1-(pyrazin-2-ylmethyl)pyrazolo[4,3-b]pyridine]"
12,0.051,"CC(F)(F)c1cccc(-c2cnc3cnn(Cc4cncnc4)c3c2)c1 [Example 274, 6-[3-(1,1-Difluoroethyl)phenyl]-1-(pyrimidin-5-ylmethyl)pyrazolo[4,3-b]pyridine]"
13,0.145,"FC(F)(F)c1cccc(-c2cnc3cnn(Cc4cncnc4)c3c2)c1 [Example 276, 1-(Pyrimidin-5-ylmethyl)-6-[3-(trifluoromethyl)phenyl]pyrazolo[4,3-b]pyridine]"
14,0.065,"CC(F)(F)c1cc(-c2cnc3cnn(Cc4cncnc4)c3c2)ccc1F [Example 277, 6-[3-(1,1-Difluoroethyl)-4-fluoro-phenyl]-1-(pyrimidin-5-ylmethyl)pyrazolo[4,3-b]pyridine]"
15,0.052,"Fc1ccc(-c2cnc3cnn(Cc4cncnc4)c3c2)cc1OC(F)F [Example 278, 6-[3-(Difluoromethoxy)-4-fluoro-phenyl]-1-(pyrimidin-5-ylmethyl)pyrazolo[4,3-b]pyridine]"
16,0.09,"FC(F)Oc1cc(-c2cnc3cnn(Cc4cncnc4)c3c2)ccc1Cl [Example 279, 6-[4-Chloro-3-(difluoromethoxy)phenyl]-1-(pyrimidin-5-ylmethyl)pyrazolo[4,3-b]pyridine]"
17,0.226,"Cc1cc(Cn2ncc3ncc(-c4ccc(F)c(C(F)F)c4)cc32)ncn1 [Example 280, 6-[3-(Difluoromethyl)-4-fluoro-phenyl]-1-[(6-methylpyrimidin-4-yl)methyl]pyrazolo[4,3-b]pyridine]"
18,0.984,"Cc1cc(Cn2ncc3ncc(-c4ccc(F)c(OC(F)F)c4)cc32)ncn1 [Example 281, 6-[3-(Difluoromethoxy)-4-fluoro-phenyl]-1-[(6-methylpyrimidin-4-yl)methyl]pyrazolo[4,3-b]pyridine]"
19,0.387,"Cc1nccc(Cn2ncc3ncc(-c4ccc(F)c(C(F)F)c4)cc32)n1 [Example 282, 6-[3-(Difluoromethyl)-4-fluoro-phenyl]-1-[(2-methylpyrimidin-4-yl)methyl]pyrazolo[4,3-b]pyridine]"
20,3.25,"Cc1nccc(Cn2ncc3ncc(-c4cccc(C(F)(F)F)c4)cc32)n1 [Example 283, 1-[(2-Methylpyrimidin-4-yl)methyl]-6-[3-(trifluoromethyl)phenyl]pyrazolo[4,3-b]pyridine]"
